According to the supplement of paper PMC10657565:
± gives the uncertainty stated by the source.

How the values were obtained:
Assay in all cases: relative cell viability vs DMSO control (% of DMSO control); higher = less growth inhibition (higher viability)
Conditions in all cases: treatment time: 72 h
HCC1806 = system: HCC1806
Experimental: (§1)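 Breast cancer cell lines (BT-474, HCC1806, SUM-159, SKBR-3) were seeded in triplicate in 96-well plates and treated 24 h after seeding with kinase inhibitors at 8 doses (3 nM to 30 uM). After 72 h, viability was read by CellTiter-Glo luminescence. Values were averaged over replicates and normalised to DMSO-only (0.1%) controls on each plate to give relative viability (% of DMSO).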

BT-474 = system: BT-474
Experimental: as §1

SKBR3 = system: SKBR3
Experimental: as §1

SUM159 = system: SUM159
Experimental: as §1

Compound | relative cell viability (HCC1806; 0.003 µM) | relative cell viability (HCC1806; 0.01 µM) | relative cell viability (HCC1806; 0.03 µM) | relative cell viability (HCC1806; 0.1 µM) | relative cell viability (HCC1806; 0.3 µM) | relative cell viability (HCC1806; 1 µM) | relative cell viability (HCC1806; 3 µM) | relative cell viability (HCC1806; 30 µM) | relative cell viability (BT-474; 0.003 µM) | relative cell viability (BT-474; 0.01 µM) | relative cell viability (BT-474; 0.03 µM) | relative cell viability (BT-474; 0.1 µM) | relative cell viability (BT-474; 0.3 µM) | relative cell viability (BT-474; 1 µM) | relative cell viability (BT-474; 3 µM) | relative cell viability (BT-474; 30 µM) | relative cell viability (SKBR3; 0.003 µM) | relative cell viability (SKBR3; 0.01 µM) | relative cell viability (SKBR3; 0.03 µM) | relative cell viability (SKBR3; 0.1 µM) | relative cell viability (SKBR3; 0.3 µM) | relative cell viability (SKBR3; 1 µM) | relative cell viability (SKBR3; 3 µM) | relative cell viability (SKBR3; 30 µM) | relative cell viability (SUM159; 0.003 µM) | relative cell viability (SUM159; 0.01 µM) | relative cell viability (SUM159; 0.03 µM) | relative cell viability (SUM159; 0.1 µM) | relative cell viability (SUM159; 0.3 µM) | relative cell viability (SUM159; 1 µM) | relative cell viability (SUM159; 3 µM) | relative cell viability (SUM159; 30 µM)
CN[C@@H]1C[C@H]2O[C@@](C)([C@@H]1OC)n1c3ccccc3c3c4c(c5c6ccccc6n2c5c31)C(=O)N[C@H]4O [UCN-01] | 97.8 ± 4.1 | 76.3 ± 6.7 | 36.7 ± 12 | 9.05 ± 0.96 | 8.6 ± 0.48 | 7.53 ± 0.63 | 2.19 ± 0.3 | 0.853 ± 0.066 | 97.4 ± 3.3 | 89.9 ± 2 | 85.5 ± 2.9 | 85.9 ± 11 | 56.9 ± 3.2 | 34.5 ± 3.3 | 15.9 ± 0.39 | 6.69 ± 0.4 |  |  |  |  |  |  |  |  |  |  |  |  |  |  |  | 
CN1CCN(c2nc(C3=C(c4c[nH]c5ccccc45)C(=O)NC3=O)c3ccccc3n2)CC1 [Sotrastaurin] | 101 ± 2.4 | 98.3 ± 3.2 | 100 ± 1.9 | 103 ± 2.2 | 103 ± 3.5 | 104 ± 3.6 | 103 ± 1.9 | 43.3 ± 5.5 | 111 ± 4.3 | 108 ± 9.6 | 104 ± 15 | 99.8 ± 21 | 91 ± 26 | 84.5 ± 32 | 76.8 ± 29 | 42.4 ± 18 |  |  |  |  |  |  |  |  |  |  |  |  |  |  |  | 
Cn1c(=O)c(F)c(Nc2ccc(I)cc2F)c2c(=O)n(C[C@@H](O)CO)cnc21 [TAK-733] | 77.8 ± 5.2 | 75.1 ± 5.4 | 73.8 ± 3.5 | 72.7 ± 4.1 | 71.6 ± 2.5 | 71.6 ± 3.9 | 70.3 ± 3.3 | 39.2 ± 3.9 | 104 ± 16 | 103 ± 7.3 | 104 ± 11 | 94.8 ± 12 | 99.5 ± 11 | 93 ± 14 | 92 ± 9.1 | 36.3 ± 9.5 |  |  |  |  |  |  |  |  |  |  |  |  |  |  |  | 
c1cc(OCCN2CCCCC2)cc(-c2n[nH]c3ccc(-c4nnc[nH]4)cc23)c1 [CC-401] |  |  |  |  |  |  |  |  |  |  |  |  |  |  |  |  | 104 ± 2.5 | 104 ± 5.8 | 105 ± 2.5 | 100 ± 3.7 | 99.8 ± 2.2 | 94.5 ± 4.1 | 91 ± 2.1 | 68.2 ± 3.2 | 102 ± 3.9 | 102 ± 5 | 101 ± 2.8 | 99.9 ± 2.5 | 98.4 ± 4.2 | 103 ± 2.2 | 105 ± 3.4 | 52.5 ± 2.7
C[C@@H](NC(=O)c1ncnc(N)c1Cl)c1ncc(C(=O)Nc2cc(C(F)(F)F)c(Cl)cn2)s1 [MLN-2480] | 102 ± 1.9 | 102 ± 1.8 | 103 ± 1.8 | 102 ± 2.5 | 103 ± 2.3 | 100 ± 5 | 101.2 ± 0.76 | 68 ± 4.8 | 93.9 ± 2.1 | 98.5 ± 6 | 97.3 ± 2.4 | 95.8 ± 4.7 | 88.1 ± 6.3 | 77.5 ± 3.7 | 86.6 ± 9.7 | 69.5 ± 7 |  |  |  |  |  |  |  |  |  |  |  |  |  |  |  | 
Cn1nccc1Nc1nccc(-c2ccn([C@H](CO)c3ccc(Cl)c(F)c3)c(=O)c2)n1 [GDC-0994] | 97.15 ± 0.91 | 94.8 ± 2.7 | 92 ± 4.1 | 88.3 ± 6.2 | 81.5 ± 3.2 | 81.6 ± 4 | 84.9 ± 3.7 | 73.5 ± 2.6 | 102 ± 6.2 | 101 ± 6.1 | 97.6 ± 7.6 | 94.3 ± 3.5 | 95.3 ± 5 | 97.8 ± 9.2 | 101 ± 11 | 88.4 ± 6.7 |  |  |  |  |  |  |  |  |  |  |  |  |  |  |  | 
COc1cc2ncnc(Nc3ccc(O)cc3)c2cc1OC [JANEX-1] |  |  |  |  |  |  |  |  |  |  |  |  |  |  |  |  | 106 ± 3.1 | 104.9 ± 0.48 | 107 ± 1.8 | 105 ± 3.3 | 104 ± 2.6 | 101 ± 5.9 | 100 ± 1.5 | 61.4 ± 2.9 | 101 ± 6.1 | 103 ± 1.8 | 104 ± 2.1 | 102 ± 3.1 | 97.9 ± 3.6 | 96.2 ± 4.1 | 92.5 ± 1.9 | 59.2 ± 2.8
Cc1c(F)cc(C(=O)NC2CC2)cc1-c1ccc(C(=O)NCC(C)(C)C)cn1 [Losmapimod] |  |  |  |  |  |  |  |  |  |  |  |  |  |  |  |  | 105 ± 4.8 | 102 ± 7 | 101 ± 5.5 | 95.9 ± 5.4 | 95.9 ± 5.7 | 93 ± 4.7 | 93.4 ± 2.4 | 73.6 ± 2.7 | 98.8 ± 3 | 97.2 ± 1.3 | 98 ± 7 | 99 ± 5.2 | 92.7 ± 2.7 | 91.5 ± 5 | 87.5 ± 2.5 | 68.5 ± 3.9
CNS(=O)(=O)Nc1nccc(Cc2c(C)c3ccc(Oc4ncccn4)cc3oc2=O)c1F | 90 ± 7.3 | 86.2 ± 1.2 | 78.5 ± 0.86 | 77.8 ± 2.5 | 74.9 ± 3.6 | 75.1 ± 5.3 | 73.7 ± 3.6 | 72.8 ± 4.9 | 98.4 ± 1.4 | 94.3 ± 1.5 | 97.2 ± 2.2 | 94.9 ± 5.3 | 92.8 ± 2.1 | 87.6 ± 5.1 | 87.6 ± 1.8 | 41.6 ± 2.2 |  |  |  |  |  |  |  |  |  |  |  |  |  |  |  | 
C[C@]12O[C@H](C[C@]1(O)CO)n1c3ccccc3c3c4c(c5c6ccccc6n2c5c31)CNC4=O [Lestaurtinib] | 83.42 ± 0.79 | 63.1 ± 3 | 43.6 ± 5.3 | 16 ± 0.76 | 7.81 ± 0.93 | 3.73 ± 0.28 | 2.9 ± 0.12 | 0.918 ± 0.075 | 87.8 ± 1.5 | 77.2 ± 3.4 | 73.6 ± 4.1 | 66.8 ± 7.2 | 59.5 ± 2.3 | 49.5 ± 2.6 | 37.9 ± 0.67 | 1.31 ± 0.099 |  |  |  |  |  |  |  |  |  |  |  |  |  |  |  | 
Cc1cc(Nc2ncc(Cl)c(Nc3ccccc3S(=O)(=O)C(C)C)n2)c(OC(C)C)cc1C1CCNCC1 [Ceritinib] |  |  |  |  |  |  |  |  |  |  |  |  |  |  |  |  | 104 ± 3 | 105 ± 2 | 102 ± 4.2 | 99.8 ± 3.8 | 96.4 ± 2.8 | 89.1 ± 5.3 | 10.7 ± 4.1 | 0.491 ± 0.1 | 103 ± 1.4 | 104 ± 2.6 | 103 ± 2.6 | 97.1 ± 3.6 | 90.8 ± 8.2 | 53.9 ± 11 | 1.44 ± 0.14 | 0.279 ± 0.078
COCc1c(-c2ccc(NC(=O)Nc3cc(C(F)(F)F)ccc3F)c(F)c2)c2c(N)ncnn2c1CN1CCOCC1 [ACTB-1003] |  |  |  |  |  |  |  |  |  |  |  |  |  |  |  |  | 105 ± 0.92 | 104 ± 2.9 | 107 ± 3.9 | 106 ± 2.7 | 107 ± 3.3 | 98.8 ± 2 | 78.2 ± 4 | 3.14 ± 0.2 | 101.4 ± 0.75 | 99.02 ± 0.34 | 96.9 ± 4.4 | 98.6 ± 1.8 | 91.7 ± 2.9 | 73.4 ± 5.4 | 39.5 ± 3.3 | 0.887 ± 0.066
Cc1nc(Nc2n[nH]c3c2CN(C(=O)N[C@H](CN(C)C)c2ccccc2)C3(C)C)c2sccc2n1 | 66.9 ± 11 | 46.3 ± 6 | 36.2 ± 1.9 | 32.5 ± 1.8 | 29.6 ± 1.5 | 19.4 ± 1.2 | 4.75 ± 0.17 | 2.8 ± 0.096 | 96.3 ± 2.5 | 92.7 ± 4.8 | 89.7 ± 3.5 | 86.5 ± 2.5 | 82.6 ± 5.6 | 70 ± 6.6 | 44 ± 2.3 | 21.3 ± 0.7 |  |  |  |  |  |  |  |  |  |  |  |  |  |  |  | 
Cc1ccc(-n2nc(C(C)(C)C)cc2NC(=O)NCc2cc(F)ccc2Oc2ccc3c(cnn3CCO)c2)cc1 [Pexmetinib] | 98.7 ± 2.1 | 100 ± 3.3 | 102 ± 4.9 | 105 ± 5.4 | 106 ± 4.4 | 102 ± 3.3 | 88.3 ± 4.1 | 12.7 ± 1.3 | 116 ± 3.7 | 118 ± 3 | 119 ± 1.9 | 118 ± 4.1 | 116 ± 6.1 | 110 ± 5 | 105 ± 3.3 | 28 ± 0.44 |  |  |  |  |  |  |  |  |  |  |  |  |  |  |  | 
